pIC50: −log10 of the molar value. Structures can show the parent of a compound that is named as a salt.

For orientation: pIC50 means −log10 of the IC50, conventionally taken in molar units. Read a low pIC50 as a large IC50.

PRMT5-MEP50 enzyme complex, sequence (O14744 2-637): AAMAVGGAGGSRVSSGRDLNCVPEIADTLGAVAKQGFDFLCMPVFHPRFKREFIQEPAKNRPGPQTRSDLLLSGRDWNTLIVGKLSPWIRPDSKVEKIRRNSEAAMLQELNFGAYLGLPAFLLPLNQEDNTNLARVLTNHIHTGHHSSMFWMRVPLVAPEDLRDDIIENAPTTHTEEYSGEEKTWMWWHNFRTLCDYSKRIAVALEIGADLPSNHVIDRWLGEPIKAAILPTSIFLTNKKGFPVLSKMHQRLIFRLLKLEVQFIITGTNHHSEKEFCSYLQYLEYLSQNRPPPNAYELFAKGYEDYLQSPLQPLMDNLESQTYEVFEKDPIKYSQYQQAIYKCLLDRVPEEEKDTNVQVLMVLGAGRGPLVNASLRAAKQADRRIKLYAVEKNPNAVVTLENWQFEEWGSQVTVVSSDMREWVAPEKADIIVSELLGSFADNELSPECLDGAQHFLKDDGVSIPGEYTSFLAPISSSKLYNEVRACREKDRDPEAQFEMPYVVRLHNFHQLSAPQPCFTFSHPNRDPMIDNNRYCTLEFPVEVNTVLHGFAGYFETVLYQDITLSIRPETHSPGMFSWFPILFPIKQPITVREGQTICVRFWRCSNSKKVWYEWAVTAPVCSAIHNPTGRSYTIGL
PRMT5-MEP50 enzyme complex, sequence (Q9BQA1 2-342 partner): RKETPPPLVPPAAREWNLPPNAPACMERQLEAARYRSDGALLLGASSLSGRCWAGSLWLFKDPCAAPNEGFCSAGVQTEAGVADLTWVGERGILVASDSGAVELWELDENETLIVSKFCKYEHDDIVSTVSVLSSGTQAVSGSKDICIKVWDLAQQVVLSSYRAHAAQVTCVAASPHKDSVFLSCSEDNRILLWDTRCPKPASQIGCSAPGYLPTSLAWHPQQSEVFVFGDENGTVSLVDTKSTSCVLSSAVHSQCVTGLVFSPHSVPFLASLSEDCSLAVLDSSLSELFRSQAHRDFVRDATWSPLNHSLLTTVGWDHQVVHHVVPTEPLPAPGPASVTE

In the test the target is PRMT5-MEP50 enzyme complex (Homo sapiens (Human), UniProt O14744). The test can be described thus: PRMT5 enzyme activity in vitro assay (methylation of histone H4R3, ELISA absorbance at 450 nm). Format: biochemical. The settings on record: SAM, histone H4 peptide, room temperature 2 hours, 8 points from 10 μM to 0.128 nM. The essentials:
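IC50 was derived from ELISA absorbance at 450 nm, using primary and HRP antibodies against H4R3 methylation on immobilised histone H4 peptide (residues 1-20). Compounds (10 μM to 0.128 nM, 8 points, 1:5) were incubated 2 h at room temperature with the PRMT5-MEP50 complex and SAM, diluted to 5 μg/mL and 2 μM respectively.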
`C[C@H]1CN(C[C@H](O)CN2CCc3ccccc3C2)C(=O)c2ccc(OC3CCN(C)CC3)cc2O1` [Example 146, (2S)-4-[(2R)-3-(3,4-dihydro-1H-isoquinolin-2-yl)-2-hydroxypropyl]-2-methyl-8-[(1-methyl-4-piperidyl)oxy]-2,3-dihydro-1,4-benzoxazepin-5-one] gave a pIC50 of 6.00 to 7.00.

`CN1CCC(Oc2ccc3c(c2)OCCN(C[C@H](O)CN2CCc4ccccc4C2)C3=O)C(F)C1` (stereo partly drawn) [Example 206, 4-[(2R)-3-(3,4-dihydro-1H-isoquinolin-2-yl)-2-hydroxy-propyl]-8-[(3-fluoro-1-methyl-4-piperidyl)oxy]-2,3-dihydro-1,4-benzoxazepin-5-one] had a negative logarithm of the IC50 (pIC50) of 6.00 to 7.00. For `CC(O)C#Cc1ccc2c(c1)OCCN(C[C@H](O)CN1CCc3ccccc3C1)C2=O` (stereo partly drawn) [Example 228, 4-[(2R)-3-(3,4-dihydro-1H-isoquinolin-2-yl)-2-hydroxy-propyl]-8-(3-hydroxybu-1-tynyl)-2,3-dihydro-1,4-benzoxazepin-5-one] the value was 7.00 to 9.00; for `COC1CN(Cc2ccc3c(c2)OCCN(C[C@H](O)CN2CCc4ccccc4C2)C3=O)C1` [Example 29, 4-[(2R)-3-(3,4-dihydro-1H-isoquinolin-2-yl)-2-hydroxy-propyl]-8-[(3-methoxyazetidin-1-yl)methyl]-2,3-dihydro-1,4-benzoxazepin-5-one], 6.00 to 7.00; for `COC(=O)N1CC(Oc2ccc3c(c2)OCCN(C[C@H](O)CN2CCc4ccccc4C2)C3=O)C1` [Example 86, methyl 3-[[4-[(2R)-3-(3,4-dihydro-1H-isoquinolin-2-yl)-2-hydroxy-propyl]-5-oxo-2,3-dihydro-1,4-benzoxazepin-8-yl]oxy]azetidin-1-carboxylate], 6.00 to 7.00. Regarding `C[C@H]1CN(C[C@H](O)CN2CCc3ccccc3C2)C(=O)c2ccc(OC3CCN(CCF)CC3)cc2O1` [Example 202, (2S)-4-[(2R)-3-(3,4-dihydro-1H-isoquinolin-2-yl)-2-hydroxy-propyl]-8-[1-(2-fluoroethyl)-4-piperidyl]oxy-2-methyl-2,3-dihydro-1,4-benzoxazepin-5-one], the pIC50 is 7.00 to 9.00. `CC1(C)CN(C[C@H](O)CN2CCc3ccccc3C2)C(=O)c2ccc(CN3CCN(C4COC4)CC3)cc2O1` [Example 182, 4-[(2R)-3-(3,4-dihydro-1H-isoquinolin-2-yl)-2-hydroxy-propyl]-2,2-dimethyl-8-[[4-(oxetan-3-yl)piperazin-1-yl]methyl]-3H-1,4-benzoxazepin-5-one] showed a negative logarithm of the IC50 (pIC50) of 6.00 to 7.00. `C[C@@H]1CN(C[C@H](O)CN2CCc3ccccc3C2)C(=O)c2ccc(OC3CCN(CCO)CC3)cc2O1` [Example 261, (2R)-4-[(2R)-3-(3,4-dihydro-1H-isoquinolin-2-yl)-2-hydroxy-propyl]-8-[[1-(2-hydroxyethyl)-4-piperidyl]oxy]-2-methyl-2,3-dihydro-1,4-benzoxazepin-5-one di hydrochloride] gave a pIC50 of 6.00 to 7.00.

`Cc1nn(C)cc1-c1ccc2c(c1)OCCN(C[C@H](O)CN1CCc3ccccc3C1)C2=O` [Example 231, 4-[(2R)-3-(3,4-dihydro-1H-isoquinolin-2-yl)-2-hydroxy-propyl]-8-(1,3-dimethylpyrazol-4-yl)-2,3-dihydro-1,4-benzoxazepin-5-one] gave a pIC50 of 7.00 to 9.00.

Take `CN1CCN(C[C@H](O)CN2CCc3ccccc3C2)C(=O)c2ccc(CCC(F)(F)F)cc21` [Example 116, 4-[(2R)-3-(3,4-dihydro-1H-isoquinolin-2-yl)-2-hydroxy-propyl]-1-methyl-8-(3,3,3-trifluoropropyl)-2,3-dihydro-1,4-benzodiazepin-5-one]: the negative-log IC50 (pIC50) is 6.00 to 7.00.

The molecule `O=C1CCC(Oc2ccc3c(c2)OCCN(C[C@H](O)CN2CCc4ccccc4C2)C3=O)CN1` (stereo partly drawn) [Example 76, 4-[(2R)-3-(3,4-dihydro-1H-isoquinolin-2-yl)-2-hydroxy-propyl]-8-[(6-oxo-3-piperidyl)oxy]-2,3-dihydro-1,4-benzoxazepin-5-one] gave a pIC50 of 6.00 to 7.00.

As for `CC(C)(O)CN1CCC(Oc2ccc3c(c2)OCCN(C[C@H](O)CN2CCc4ccccc4C2)C3=O)CC1` [Example 238, 4-[(2R)-3-(3,4-dihydro-1H-isoquinolin-2-yl)-2-hydroxy-propyl]-8-[[1-(2-hydroxy-2-methyl-propyl)-4-piperidyl]oxy]-2,3-dihydro-1,4-benzoxazepin-5-one], the pIC50 is 6.00 to 7.00.

On to `CC1(C)CN(C[C@H](O)CN2CCc3ccccc3C2)C(=O)c2ccc(C(=O)N3CCN4CCCC4C3)cc2O1` (stereo partly drawn) [Example 210, 8-(3,4,6,7,8,8a-hexahydro-1H-pyrrolo[1,2-a]pyrazine-2-carbonyl)-4-[(2R)-3-(3,4-dihydro-1H-isoquinolin-2-yl)-2-hydroxy-propyl]-2,2-dimethyl-3H-1,4-benzoxazepin-5-one], for which the pIC50 was 6.00 to 7.00. To `O=C1c2ccc(-c3cccnc3)cc2OCCN1C[C@H](O)CN1CCc2ccccc2C1` [Example 230, 4-[(2R)-3-(3,4-dihydro-1H-isoquinolin-2-yl)-2-hydroxy-propyl]-8-(3-pyridyl)-2,3-dihydro-1,4-benzoxazepin-5-one] belongs 7.00 to 9.00; to `O=C1c2ccc(CN3CCC[C@@H]3CO)cc2OCCN1C[C@H](O)CN1CCc2ccccc2C1` [Example 47, 4-[(2R)-3-(3,4-dihydro-1H-isoquinolin-2-yl)-2-hydroxy-propyl]-8-[[(2R)-2-(hydroxymethyl)pyrrolidin-1-yl]methyl]-2,3-dihydro-1,4-benzoxazepin-5-one], 6.00 to 7.00.

`O=C1c2ccc(Oc3ncc(F)cn3)cc2OCCN1C[C@H](O)CN1CCc2ccccc2C1` [Example 211, 4-[(2R)-3-(3,4-dihydro-1H-isoquinolin-2-yl)-2-hydroxy-propyl]-8-(5-fluoropyrimidin-2-yl)oxy-2,3-dihydro-1,4-benzoxazepin-5-one] showed a pIC50 of 6.00 to 7.00. To `CC1(C)CN(C[C@H](O)CN2CCc3ccccc3C2)C(=O)c2ccc(CN3CCC4(COC4)C3)cc2O1` [Example 183, 4-[(2R)-3-(3,4-dihydro-1H-isoquinolin-2-yl)-2-hydroxy-propyl]-2,2-dimethyl-8-(2-oxa-7-azaspiro[3.4]octan-7-ylmethyl)-3H-1,4-benzoxazepin-5-one] belongs 6.00 to 7.00. Molecule `O=C1c2ccc(CN3CCC(F)(F)C3)cc2OCCN1C[C@H](O)CN1CCc2ccccc2C1` [Example 52, 8-[(3,3-difluoropyrrolidin-1-yl)methyl]-4-[(2R)-3-(3,4-dihydro-1H-isoquinolin-2-yl)-2-hydroxy-propyl]-2,3-dihydro-1,4-benzoxazepin-5-one] gave a pIC50 of 6.00 to 7.00. To `CC1COCCN1C(=O)c1ccc2c(c1)OCCN(C[C@H](O)CN1CCc3ccccc3C1)C2=O` (stereo partly drawn) [Example 191, 4-[(2R)-3-(3,4-dihydro-1H-isoquinolin-2-yl)-2-hydroxy-propyl]-8-(3-methylmorpholin-4-carbonyl)-2,3-dihydro-1,4-benzoxazepin-5-one] belongs 6.00 to 7.00. Consider `N#Cc1ccc2c(c1)CCCN(C[C@H](O)CN1CCc3ccccc3C1)C2=O` [Example 9, 2-[(2R)-3-(3,4-dihydro-1H-isoquinolin-2-yl)-2-hydroxy-propyl]-1-oxo-4,5-dihydro-3H-2-benz azepin-7-carbonitrile], for which the pIC50 was 6.00 to 7.00. To `O=C1c2ccc(OCCN3CCOCC3)cc2OCCN1C[C@H](O)CN1CCc2ccccc2C1` [Example 73, 4-[(2R)-3-(3,4-dihydro-1H-isoquinolin-2-yl)-2-hydroxy-propyl]-8-(2-morpholinoethoxy)-2,3-dihydro-1,4-benzoxazepin-5-one] belongs 6.00 to 7.00.

(Values after patent publication US11111237B2, “Bicyclic compound and use thereof” (SK BIOPHARMACEUTICALS CO., LTD., priority 2019, dated 2021).)
